Legend:
[1] = system: ERK1/2 phosphorylation of p90RSK in HT29 cells; assay: pRSK MSD Assay in HT29 cells; assay type: cell-based; conditions: Homo sapiens, HT-29, read-out: ERK1/ERK2 PRSK MSD HT29 EC50
Summary of the method: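 Serum-starved HT29 cells (0.1% FBS overnight) treated with test compound for 120 min at 37° C, then lysed with protease and phosphatase inhibitors. Phospho-p90RSK quantified by MSD sandwich immunoassay: RSK capture antibody, phospho-RSK detection antibody plus Sulfo-tagged antibody, electrochemiluminescence read.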

[2] = system: ERK1/2 phosphorylation of p90RSK in A375 cells; assay: Detection of total and phosphor-RSK by MSD ELISA (A375); assay type: cell-based; conditions: Homo sapiens, A-375, read-out: ERK1/ERK2 PRSK A375 EC50
Summary of the method: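 A375 cells serum-starved overnight in DMEM/0.1% FBS, then treated 2 h at 37° C with compound (1000× DMSO dilutions into medium). Lysates captured on RSK antibody-coated MSD plates; phospho-RSK (Ser380) and total RSK detected with SulfoTag secondary antibodies by electrochemiluminescence.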

Compound | EC50 [1] [nM] | EC50 [2] [nM]
C=CC(=O)Nc1cc(OC(F)(F)F)ccc1Nc1nc(Nc2cc(OC)ncc2C)ncc1C(F)(F)F [Compound I-407, N-(2-((2-((2-methoxy-5-methylpyridin-4-yl)amino)-5-(trifluoromethyl)pyrimidin-4-yl)amino)-5-(trifluoromethoxy)phenyl)acrylamide] | < 100 | 101 to 500
C=CC(=O)Nc1cc(C)ccc1Nc1nc(Nc2nc(OC)ncc2C)ncc1C(F)(F)F [Compound I-347, N-(2-((2-((2-methoxy-5-methylpyrimidin-4-yl)amino)-5-(trifluoromethyl)pyrimidin-4-yl)amino)-5-methylphenyl)acrylamide] | < 100 | 101 to 500
C=CC(=O)Nc1cc(C)ccc1Nc1nc(Nc2cnc(OC)cc2C)ncc1C(F)(F)F [Compound I-350, N-(2-((2-((6-methoxy-4-methylpyridin-3-yl)amino)-5-(trifluoromethyl)pyrimidin-4-yl)amino)-5-methylphenyl)acrylamide] | > 1000 | > 1000
C=CC(=O)Nc1cc(CN2CCN(C)CC2)ccc1Nc1nc(Nc2nc(OC)ncc2C)ncc1C(F)(F)F [Compound I-394, N-(2-((2-((2-methoxy-5-methylpyrimidin-4-yl)amino)-5-(trifluoromethyl)pyrimidin-4-yl)amino)-5-((4-methylpiperazin-1-yl)methyl)phenyl)acrylamide] | 501 to 999 | > 1000
C=CC(=O)Nc1cc(CN2CCN(C(C)=O)CC2)ccc1Nc1nc(Nc2cc(OC)ncc2C)ncc1C(F)(F)F [Compound I-381, N-(5-((4-acetylpiperazin-1-yl)methyl)-2-((2-((2-methoxy-5-methylpyridin-4-yl)amino)-5-(trifluoromethyl)pyrimidin-4-yl)amino)phenyl)acrylamide] | < 100 | < 100
C=CC(=O)Nc1cc(C)ccc1Nc1nc(NC2CCC(=O)NC2)ncc1C(F)(F)F (racemic) [Compound I-368, Rac-N-(5-methyl-2-((2-((6-oxopiperidin-3-yl)amino)-5-(trifluoromethyl)pyrimidin-4-yl)amino)phenyl)acrylamide] | 501 to 999 | > 1000
C=CC(=O)Nc1cc(OCC(N)=O)ccc1Nc1nc(NC2CCOCC2)ncc1C(F)(F)F [Compound I-387, N-(5-(2-amino-2-oxoethoxy)-2-((2-((tetrahydro-2H-pyran-4-yl)amino)-5-(trifluoromethyl)pyrimidin-4-yl)amino)phenyl)acrylamide] | 101 to 500 | 101 to 500
C=CC(=O)Nc1cc(C)ccc1Nc1nc(Nc2cc(-c3nc[nH]n3)ccc2C)ncc1C(F)(F)F [Compound I-373, N-(5-methyl-2-((2-((2-methyl-5-(1H-1,2,4-triazol-3-yl)phenyl)amino)-5-(trifluoromethyl)pyrimidin-4-yl)amino)phenyl)acrylamide] | 101 to 500 | 501 to 999
C=CC(=O)Nc1cc(C)ccc1Nc1nc(Nc2ncc(F)c(OC)n2)ncc1C(F)(F)F [Compound I-356, N-(2-((2-((5-fluoro-4-methoxypyrimidin-2-yl)amino)-5-(trifluoromethyl)pyrimidin-4-yl)amino)-5-methylphenyl)acrylamide] | 101 to 500 | 101 to 500
C=CC(=O)Nc1cc(C)c(F)cc1Nc1nc(Nc2cc(OC)ncc2C)ncc1C(F)(F)F [Compound I-366, N-(4-fluoro-2-((2-((2-methoxy-5-methylpyridin-4-yl)amino)-5-(trifluoromethyl)pyrimidin-4-yl)amino)-5-methylphenyl)acrylamide] | > 1000 | > 1000
C=CC(=O)Nc1cc(C)ccc1Nc1nc(Nc2cc(-c3c[nH]cn3)ccc2C)ncc1C(F)(F)F [Compound I-378, N-(2-((2-((5-(1H-imidazol-4-yl)-2-methylphenyl)amino)-5-(trifluoromethyl)pyrimidin-4-yl)amino)-5-methylphenyl)acrylamide] | 101 to 500 | 501 to 999
C=CC(=O)Nc1cc(C)ccc1Nc1nc(Nc2nc(O)ncc2C)ncc1C(F)(F)F [Compound I-364, N-(2-((2-((2-hydroxy-5-methylpyrimidin-4-yl)amino)-5-(trifluoromethyl)pyrimidin-4-yl)amino)-5-methylphenyl)acrylamide] | < 100 | < 100
C=CC(=O)Nc1cc(CN2CCN(C(=O)c3cnccn3)CC2)ccc1Nc1nc(Nc2nc(OC)ncc2C)ncc1C(F)(F)F [Compound I-393, N-(2-((2-((2-methoxy-5-methylpyrimidin-4-yl)amino)-5-(trifluoromethyl)pyrimidin-4-yl)amino)-5-((4-(pyrazine-2-carbonyl)piperazin-1-yl)methyl)phenyl)acrylamide] | 501 to 999 | > 1000
C=CC(=O)Nc1cc(CCC(N)=O)ccc1Nc1nc(Nc2cc(OC)ncc2C)ncc1C(F)(F)F [Compound I-400, N-(5-(3-amino-3-oxopropyl)-2-((2-((2-methoxy-5-methylpyridin-4-yl)amino)-5-(trifluoromethyl)pyrimidin-4-yl)amino)phenyl)acrylamide] | < 100 | < 100
C=CC(=O)Nc1cc(C)ccc1Nc1nc(Nc2cc(P(C)(C)=O)ncc2C)ncc1C(F)(F)F [Compound I-343, N-(2-((2-((2-(dimethylphosphoryl)-5-methylpyridin-4-yl)amino)-5-(trifluoromethyl)pyrimidin-4-yl)amino)-5-methylphenyl)acrylamide] | 101 to 500 | 101 to 500
C=CC(=O)Nc1cc(CN2CCN(C(=O)CO)CC2)ccc1Nc1nc(Nc2cc(OC)ncc2C)ncc1C(F)(F)F [Compound I-385, N-(5-((4-(2-hydroxyacetyl)piperazin-1-yl)methyl)-2-((2-((2-methoxy-5-methylpyridin-4-yl)amino)-5-(trifluoromethyl)pyrimidin-4-yl)amino)phenyl)acrylamide] | < 100 | < 100

Other lines, results leading:

EC50 [1] [nM] | EC50 [2] [nM] | Compound
101 to 500 | 101 to 500 | C=CC(=O)Nc1cc(C)ccc1Nc1nc(Nc2cc(OC)ncc2C(F)F)ncc1C(F)(F)F [Compound I-431, N-(2-((2-((5-(difluoromethyl)-2-methoxypyridin-4-yl)amino)-5-(trifluoromethyl)pyrimidin-4-yl)amino)-5-methylphenyl)acrylamide]
101 to 500 | 501 to 999 | C=CC(=O)Nc1cc(C)ccc1Nc1nc(Nc2cc(C(=O)NC)nn2C)ncc1C(F)(F)F [Compound I-424, 5-((4-((2-acrylamido-4-methylphenyl)amino)-5-(trifluoromethyl)pyrimidin-2-yl)amino)-N,1-dimethyl-1H-pyrazole-3-carboxamide]
> 1000 | > 1000 | C=CC(=O)Nc1cc(C)ccc1Nc1nc(NC2COC2)ncc1C(F)(F)F [Compound I-420, N-(5-methyl-2-((2-(oxetan-3-ylamino)-5-(trifluoromethyl)pyrimidin-4-yl)amino)phenyl)acrylamide]
101 to 500 | 101 to 500 | C=CC(=O)Nc1cc(CN2CCN(C(C)=O)C[C@@H]2C)ccc1Nc1nc(Nc2cc(OC)ncc2C)ncc1C(F)(F)F [Compound I-421, (S)—N-(5-((4-acetyl-2-methylpiperazin-1-yl)methyl)-2-((2-((2-methoxy-5-methylpyridin-4-yl)amino)-5-(trifluoromethyl)pyrimidin-4-yl)amino)phenyl)acrylamide]
101 to 500 | 101 to 500 | C=CC(=O)Nc1cc(C)ccc1Nc1nc(Nc2cc(OC)ncc2CC)ncc1C(F)(F)F [Compound I-408, N-(2-((2-((5-ethyl-2-methoxypyridin-4-yl)amino)-5-(trifluoromethyl)pyrimidin-4-yl)amino)-5-methylphenyl)acrylamide]
> 1000 | > 1000 | C=CC(=O)Nc1c(Nc2nc(Nc3cc(OC)ncc3C)ncc2OC)cccc1OCc1nccs1 [Compound I-411, N-(2-((5-methoxy-2-((2-methoxy-5-methylpyridin-4-yl)amino)pyrimidin-4-yl)amino)-6-(thiazol-2-ylmethoxy)phenyl)acrylamide]
< 100 | 101 to 500 | C=CC(=O)Nc1cc(O[C@@H](C)C(=O)N2CCN(S(C)(=O)=O)CC2)ccc1Nc1nc(Nc2cc(OC)ncc2C)ncc1C(F)(F)F [Compound I-426, (S)—N-(2-((2-((2-methoxy-5-methylpyridin-4-yl)amino)-5-(trifluoromethyl)pyrimidin-4-yl)amino)-5-((1-(4-(methylsulfonyl)piperazin-1-yl)-1-oxopropan-2-yl)oxy)phenyl)acrylamide]
101 to 500 | 101 to 500 | C=CC(=O)Nc1cc(CN2CCN(C(C)=O)C[C@H]2C)ccc1Nc1nc(Nc2cc(OC)ncc2C)ncc1C(F)(F)F [Compound I-422, (R)—N-(5-((4-acetyl-2-methylpiperazin-1-yl)methyl)-2-((2-((2-methoxy-5-methylpyridin-4-yl)amino)-5-(trifluoromethyl)pyrimidin-4-yl)amino)phenyl)acrylamide]
101 to 500 | 101 to 500 | C=CC(=O)Nc1cc(O[C@H](C)C(=O)N2CCN(S(C)(=O)=O)CC2)ccc1Nc1nc(Nc2cc(OC)ncc2C)ncc1C(F)(F)F [Compound I-410, (R)—N-(2-((2-((2-methoxy-5-methylpyridin-4-yl)amino)-5-(trifluoromethyl)pyrimidin-4-yl)amino)-5-((1-(4-(methylsulfonyl)piperazin-1-yl)-1-oxopropan-2-yl)oxy)phenyl)acrylamide]
101 to 500 | 501 to 999 | C=CC(=O)Nc1cc(O[C@@H](C)C(=O)N2CCN(C(C)=O)CC2)ccc1Nc1nc(Nc2cc(OC)ncc2C)ncc1C(F)(F)F [Compound I-425, (S)—N-(5-((1-(4-acetylpiperazin-1-yl)-1-oxopropan-2-yl)oxy)-2-((2-((2-methoxy-5-methylpyridin-4-yl)amino)-5-(trifluoromethyl)pyrimidin-4-yl)amino)phenyl)acrylamide]

From US9561228B2 (Celgene Avilomics Research, Inc., priority 2013, dated 2017)
